The values that follow come from US20250026752A1, “POSITIVE ALLOSTERIC MODULATORS OF THE MUSCARINIC ACETYLCHOLINE RECEPTOR M4” (Vanderbilt University, priority 2021, published 2025).

The target of the test is T1, human mAChR M4 (Homo sapiens, UniProt P08173).
T1 construct: expressed in transfected cells; host or cells: CHO-K1 (ATCC), stably expressing hM4 and Gqi5
T1 sequence (P08173 1-479): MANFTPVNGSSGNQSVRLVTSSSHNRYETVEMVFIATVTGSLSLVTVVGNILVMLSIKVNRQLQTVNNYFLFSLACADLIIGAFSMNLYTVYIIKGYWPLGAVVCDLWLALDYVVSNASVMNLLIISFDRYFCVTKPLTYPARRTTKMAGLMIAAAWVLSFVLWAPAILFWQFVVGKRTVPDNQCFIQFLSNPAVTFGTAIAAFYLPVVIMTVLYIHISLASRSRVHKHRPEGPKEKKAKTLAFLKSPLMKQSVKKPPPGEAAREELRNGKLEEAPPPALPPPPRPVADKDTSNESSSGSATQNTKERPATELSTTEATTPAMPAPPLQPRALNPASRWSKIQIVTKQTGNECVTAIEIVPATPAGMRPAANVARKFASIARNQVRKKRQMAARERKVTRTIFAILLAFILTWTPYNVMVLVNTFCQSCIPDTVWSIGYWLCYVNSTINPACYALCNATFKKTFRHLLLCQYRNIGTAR
Briefly: mAChR M4 cell-based functional assay: calcium flux (Fluo-4, FDSS), positive allosteric modulator activity on the EC20 acetylcholine response, hM4-Gqi5 CHO-K1 cells. The conditions noted are these: for Emax at 30 µM: CHO-K1, human M4, % ACh maximum at 30 μM; for EC50: human M4, PAM activity on EC20 acetylcholine response, calcium flux, read-out: Human M4 EC50. The essentials: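 CHO-K1 cells stably expressing human M4 with chimeric Gqi5, loaded with Fluo-4 AM for 50 min at 37° C. Compounds (11-point, 1:3 dilutions) added first, then an acetylcholine EC20 at 144 s; calcium read on FDSS at 1 Hz. EC50 is the half-maximal increase above the EC20 baseline, four-parameter logistic fit.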
For orientation: Calcium assays in cells follow changes in intracellular calcium, usually with a dye or a luminescent sensor.

The term Emax denotes the maximal effect, on the per cent scale that the assay sets. What is called EC50 is the concentration needed to bring the measured effect to its halfway point. Consider `Cc1nc(N2CCc3ncc(N4CCCn5nccc54)cc3C2)c2cc(F)ccc2n1` [Compound 73, 4-[3-(6,7-dihydro-5H-pyrazolo[1,5-a]pyrimidin-4-yl)-7,8-dihydro-5H-1,6-naphthyridin-6-yl]-6-fluoro-2-methyl-quinazoline], for which the Emax at 30 µM worked out at 97% and the EC50 is 90 nM.
The matching figures for `Cc1nn(C)cc1-c1cnc2c(c1)CN(c1ncnc3ccc(Cl)cc13)CC2` [Compound 6, 6-chloro-4-[3-(1,3-dimethylpyrazol-4-yl)-7,8-dihydro-5H-1,6-naphthyridin-6-yl]quinazoline]: 88% and 70 nM.
The matching figures for `Fc1ccc2ncnc(N3CCc4ncc(N5CCOC(c6cccnc6)C5)cc4C3)c2c1` (centres unmarked) [Compound 229, 4-(6-(6-fluoroquinazolin-4-yl)-5,6,7,8-tetrahydro-1,6-naphthyridin-3-yl)-2-(pyridin-3-yl)morpholine]: 86% and 510 nM.
Take `Cc1nc(N2CCc3ncc(-c4cnc(F)cc4C)cc3C2)c2cc(F)ccc2n1` [Compound 305, 6-fluoro-4-(3-(6-fluoro-4-methylpyridin-3-yl)-7,8-dihydro-1,6-naphthyridin-6(5H)-yl)-2-methylquinazoline]: the Emax at 30 µM was 92% and the EC50 stood at 130 nM.
Regarding `Cc1ccc2nc(Cl)nc(N3CCc4ncc(C(F)(F)F)cc4C3)c2c1` [Compound 119, 2-chloro-6-methyl-4-[3-(trifluoromethyl)-7,8-dihydro-5H-1,6-naphthyridin-6-yl]quinazoline], the Emax at 30 µM was determined as 95% and the EC50 came out at 110 nM.
Turning to `Cn1nccc1Nc1cnc2c(c1)CN(c1ncnc3ccc(F)cc13)CC2` [Compound 75, 6-(6-fluoroquinazolin-4-yl)-N-(2-methylpyrazol-3-yl)-7,8-dihydro-5H-1,6-naphthyridin-3-amine], the Emax at 30 µM amounted to 100% and the EC50 was found to be 30 nM.
The matching figures for `C[C@@H]1CN(c2ncnc3ccc(Cl)cc23)Cc2cc(N3CCOCC3)cnc21` [Compound 260, (R)-4-(6-(6-chloroquinazolin-4-yl)-8-methyl-5,6,7,8-tetrahydro-1,6-naphthyridin-3-yl)morpholine]: 107% and 120 nM.
The matching figures for `Cc1ccc2ncnc(N3CCc4ncc(N5CCCn6nccc65)cc4C3)c2c1` [Compound 78, 4-[3-(6,7-dihydro-5H-pyrazolo[1,5-a]pyrimidin-4-yl)-7,8-dihydro-5H-1,6-naphthyridin-6-yl]-6-methyl-quinazoline]: 129% and 30 nM.
The matching figures for `Cc1noc(C)c1-c1cnc2c(c1)CN(c1nc(-c3c(C)noc3C)nc3ccc(Cl)cc13)CC2` [Compound 187, 4-[6-chloro-4-[3-(3,5-dimethylisoxazol-4-yl)-7,8-dihydro-5H-1,6-naphthyridin-6-yl]quinazolin-2-yl]-3,5-dimethyl-isoxazole]: 79% and 4150 nM.
As for `Cc1nc(N2CCc3ncc(-c4c(C)noc4C)cc3C2)c2cc(Cl)ccc2n1` [Compound 47, 4-[6-(6-chloro-2-methyl-quinazolin-4-yl)-7,8-dihydro-5H-1,6-naphthyridin-3-yl]-3,5-dimethyl-isoxazole], the Emax at 30 µM was determined as 99% and the EC50 turned out to be 140 nM.
The matching figures for `Cc1nc(N2CCc3ncc(N4CCN(C)C5(COC5)C4)cc3C2)c2cc(Cl)ccc2n1` [Compound 285, 8-(6-(6-chloro-2-methylquinazolin-4-yl)-5,6,7,8-tetrahydro-1,6-naphthyridin-3-yl)-5-methyl-2-oxa-5,8-diazaspiro[3.5]nonane]: 98% and 580 nM.
The matching figures for `Cc1nc(N2CCc3ncc(C4CC4)cc3C2)c2cc(C(F)(F)F)ccc2n1` [Compound 165, 4-(3-cyclopropyl-7,8-dihydro-5H-1,6-naphthyridin-6-yl)-2-methyl-6-(trifluoromethyl)quinazoline]: 77% and 1810 nM.
For `Cc1ccc(-c2cnc3c(c2)CN(c2ncnc4ccc(Cl)cc24)CC3)cn1` [Compound 43, 6-chloro-4-[3-(6-methyl-3-pyridyl)-7,8-dihydro-5H-1,6-naphthyridin-6-yl]quinazoline], the Emax at 30 µM was determined as 79% and the EC50 was found to be 70 nM.
The matching figures for `C[C@H]1CN(c2ncnc3cc(F)c(F)cc23)Cc2cc(N3CCOCC3)cnc21` [Compound 261, (S)-4-(6-(6,7-difluoroquinazolin-4-yl)-8-methyl-5,6,7,8-tetrahydro-1,6-naphthyridin-3-yl)morpholine]: 79% and 440 nM.
For `Cc1ccc2ncnc(N3CCc4ncc(C(F)(F)F)cc4C3)c2c1` [Compound 131, 6-methyl-4-[3-(trifluoromethyl)-7,8-dihydro-5H-1,6-naphthyridin-6-yl]quinazoline], the Emax at 30 µM is 82% and the EC50 is 30 nM.
Take `Fc1cc2ncnc(N3CCc4ncc(C(F)(F)F)cc4C3)c2cc1F` [Compound 151, 6,7-difluoro-4-[3-(trifluoromethyl)-7,8-dihydro-5H-1,6-naphthyridin-6-yl]quinazoline]: the Emax at 30 µM turned out to be 102% and the EC50 stood at 110 nM.
The matching figures for `Cc1nc(N2CCc3ncc(N4CCOc5ncccc54)cc3C2)c2cc(Cl)ccc2n1` [Compound 107, 1-[6-(6-chloro-2-methyl-quinazolin-4-yl)-7,8-dihydro-5H-1,6-naphthyridin-3-yl]-2,3-dihydropyrido[2,3-b][1,4]oxazine]: 98% and 140 nM.
The matching figures for `Fc1ccc2ncnc(N3CCc4ncc(-c5ccnn5C5COC5)cc4C3)c2c1` [Compound 265, 6-fluoro-4-(3-(1-(oxetan-3-yl)-1H-pyrazol-5-yl)-7,8-dihydro-1,6-naphthyridin-6(5H)-yl)quinazoline]: 76% and 500 nM.
The matching figures for `c1cnc2nc(N3CCOCC3)nc(N3CCc4ncc(N5CCCn6nccc65)cc4C3)c2c1` [Compound 250, 4-(4-(3-(6,7-dihydropyrazolo[1,5-a]pyrimidin-4(5H)-yl)-7,8-dihydro-1,6-naphthyridin-6(5H)-yl)pyrido[2,3-d]pyrimidin-2-yl)morpholine]: 73% and 360 nM.
In the case of `Clc1nc(N2CCc3ncc(N4CCOc5ncccc54)cc3C2)c2cccnc2n1` [Compound 95, 1-[6-(2-chloropyrido[2,3-d]pyrimidin-4-yl)-7,8-dihydro-5H-1,6-naphthyridin-3-yl]-2,3-dihydropyrido[2,3-b][1,4]oxazine], the Emax at 30 µM came to 78% and the EC50 was 420 nM.
The matching figures for `CN1CCN(c2cnc3c(c2)CN(c2ncnc4ccc(F)cc24)CC3)CC1=O` [Compound 272, 4-(6-(6-fluoroquinazolin-4-yl)-5,6,7,8-tetrahydro-1,6-naphthyridin-3-yl)-1-methylpiperazin-2-one]: 92% and 1150 nM.
The matching figures for `Fc1cc2c(N3CCc4ncc(C(F)(F)F)cc4C3)nc(N3CCOCC3)nc2cc1Cl` [Compound 209, 4-[7-chloro-6-fluoro-4-[3-(trifluoromethyl)-7,8-dihydro-5H-1,6-naphthyridin-6-yl]quinazolin-2-yl]morpholine]: 50% and more than 10000 nM.
